# From US8129417B2, “Substituted octahydrocyclopenta[C]pyrrol-4-amines as calcium channel blockers” (Abbott Laboratories, priority 2008, dated 2012)
# Molecular target: human Cav2.2 (Homo sapiens, UniProt Q00975)
# Test: Assessment of calcium channel activity using FLIPR (Ca2+ influx in IMR32 cells)
# Assay type: cell-based
# Conditions: 60 minute pre-incubation with compound, 2 μM nifedipine, depolarized with 80 mM KCl
# Outline: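 IMR32 neuroblastoma cells seeded at 1-1.2×10^5 cells/well and grown 48 h at 37 °C before FLIPR Ca2+ influx read. Percent inhibition at each concentration vs no-inhibitor activity; IC50 by non-linear sigmoidal dose-response fit.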
# Chain of human Cav2.2 (Q00975 whole entry): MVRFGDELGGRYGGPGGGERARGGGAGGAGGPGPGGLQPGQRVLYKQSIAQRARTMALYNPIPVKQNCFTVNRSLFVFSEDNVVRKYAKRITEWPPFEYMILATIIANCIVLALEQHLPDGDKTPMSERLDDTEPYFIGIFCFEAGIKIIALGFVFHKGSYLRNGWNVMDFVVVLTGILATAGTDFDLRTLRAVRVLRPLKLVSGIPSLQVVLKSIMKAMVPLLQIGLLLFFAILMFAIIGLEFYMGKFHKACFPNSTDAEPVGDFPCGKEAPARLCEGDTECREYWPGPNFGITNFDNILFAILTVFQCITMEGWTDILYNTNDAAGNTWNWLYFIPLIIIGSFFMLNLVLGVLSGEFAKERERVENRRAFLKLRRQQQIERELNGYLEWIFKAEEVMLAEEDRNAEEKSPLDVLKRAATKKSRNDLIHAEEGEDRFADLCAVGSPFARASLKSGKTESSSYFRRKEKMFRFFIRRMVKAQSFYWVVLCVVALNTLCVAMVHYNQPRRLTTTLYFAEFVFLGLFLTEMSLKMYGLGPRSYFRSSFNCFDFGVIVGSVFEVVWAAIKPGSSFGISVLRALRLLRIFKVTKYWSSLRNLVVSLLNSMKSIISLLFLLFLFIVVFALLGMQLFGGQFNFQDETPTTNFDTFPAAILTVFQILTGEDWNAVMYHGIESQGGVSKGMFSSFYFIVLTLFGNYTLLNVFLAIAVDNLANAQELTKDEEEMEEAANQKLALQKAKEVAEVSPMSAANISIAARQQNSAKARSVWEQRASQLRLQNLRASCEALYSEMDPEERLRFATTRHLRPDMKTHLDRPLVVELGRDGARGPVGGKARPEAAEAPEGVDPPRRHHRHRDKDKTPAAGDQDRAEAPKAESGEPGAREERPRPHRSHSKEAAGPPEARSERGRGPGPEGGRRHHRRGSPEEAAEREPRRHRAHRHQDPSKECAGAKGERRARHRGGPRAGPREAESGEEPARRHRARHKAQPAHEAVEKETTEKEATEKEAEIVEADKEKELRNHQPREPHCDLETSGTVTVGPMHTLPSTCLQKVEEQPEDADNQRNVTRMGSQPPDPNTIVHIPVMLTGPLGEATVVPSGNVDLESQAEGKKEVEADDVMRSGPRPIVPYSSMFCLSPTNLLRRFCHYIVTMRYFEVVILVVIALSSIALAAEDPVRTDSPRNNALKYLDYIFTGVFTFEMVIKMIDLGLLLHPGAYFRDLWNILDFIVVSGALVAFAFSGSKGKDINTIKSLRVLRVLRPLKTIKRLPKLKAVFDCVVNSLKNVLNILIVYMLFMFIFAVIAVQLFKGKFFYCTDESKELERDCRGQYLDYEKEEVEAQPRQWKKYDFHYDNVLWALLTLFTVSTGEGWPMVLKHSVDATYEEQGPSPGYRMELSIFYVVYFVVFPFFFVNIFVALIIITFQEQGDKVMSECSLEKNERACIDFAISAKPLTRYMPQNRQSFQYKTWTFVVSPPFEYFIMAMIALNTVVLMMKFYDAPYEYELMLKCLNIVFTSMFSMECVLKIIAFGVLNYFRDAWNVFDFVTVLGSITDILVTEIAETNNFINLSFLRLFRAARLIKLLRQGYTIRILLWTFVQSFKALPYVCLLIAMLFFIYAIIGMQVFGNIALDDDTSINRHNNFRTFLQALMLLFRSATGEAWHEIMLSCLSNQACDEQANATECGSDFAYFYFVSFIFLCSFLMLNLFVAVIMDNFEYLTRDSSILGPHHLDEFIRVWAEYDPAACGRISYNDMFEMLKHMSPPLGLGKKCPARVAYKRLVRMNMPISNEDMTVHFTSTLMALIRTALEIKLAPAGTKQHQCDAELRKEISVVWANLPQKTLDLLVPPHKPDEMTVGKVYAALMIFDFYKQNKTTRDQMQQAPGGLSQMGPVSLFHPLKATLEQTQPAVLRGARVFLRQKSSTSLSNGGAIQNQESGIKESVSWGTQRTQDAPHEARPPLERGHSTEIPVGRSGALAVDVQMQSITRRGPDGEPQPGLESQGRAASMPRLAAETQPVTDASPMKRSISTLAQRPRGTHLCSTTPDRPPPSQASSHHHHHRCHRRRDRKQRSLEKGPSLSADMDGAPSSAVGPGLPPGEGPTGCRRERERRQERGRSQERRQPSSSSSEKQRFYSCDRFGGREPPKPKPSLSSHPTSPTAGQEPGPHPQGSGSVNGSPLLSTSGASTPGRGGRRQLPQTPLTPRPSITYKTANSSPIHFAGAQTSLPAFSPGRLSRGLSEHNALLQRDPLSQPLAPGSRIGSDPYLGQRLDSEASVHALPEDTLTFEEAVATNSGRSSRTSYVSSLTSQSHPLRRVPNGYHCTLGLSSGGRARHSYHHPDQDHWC
# Chain of human Cav2.2 (P54289 25-946 partner limits assumed): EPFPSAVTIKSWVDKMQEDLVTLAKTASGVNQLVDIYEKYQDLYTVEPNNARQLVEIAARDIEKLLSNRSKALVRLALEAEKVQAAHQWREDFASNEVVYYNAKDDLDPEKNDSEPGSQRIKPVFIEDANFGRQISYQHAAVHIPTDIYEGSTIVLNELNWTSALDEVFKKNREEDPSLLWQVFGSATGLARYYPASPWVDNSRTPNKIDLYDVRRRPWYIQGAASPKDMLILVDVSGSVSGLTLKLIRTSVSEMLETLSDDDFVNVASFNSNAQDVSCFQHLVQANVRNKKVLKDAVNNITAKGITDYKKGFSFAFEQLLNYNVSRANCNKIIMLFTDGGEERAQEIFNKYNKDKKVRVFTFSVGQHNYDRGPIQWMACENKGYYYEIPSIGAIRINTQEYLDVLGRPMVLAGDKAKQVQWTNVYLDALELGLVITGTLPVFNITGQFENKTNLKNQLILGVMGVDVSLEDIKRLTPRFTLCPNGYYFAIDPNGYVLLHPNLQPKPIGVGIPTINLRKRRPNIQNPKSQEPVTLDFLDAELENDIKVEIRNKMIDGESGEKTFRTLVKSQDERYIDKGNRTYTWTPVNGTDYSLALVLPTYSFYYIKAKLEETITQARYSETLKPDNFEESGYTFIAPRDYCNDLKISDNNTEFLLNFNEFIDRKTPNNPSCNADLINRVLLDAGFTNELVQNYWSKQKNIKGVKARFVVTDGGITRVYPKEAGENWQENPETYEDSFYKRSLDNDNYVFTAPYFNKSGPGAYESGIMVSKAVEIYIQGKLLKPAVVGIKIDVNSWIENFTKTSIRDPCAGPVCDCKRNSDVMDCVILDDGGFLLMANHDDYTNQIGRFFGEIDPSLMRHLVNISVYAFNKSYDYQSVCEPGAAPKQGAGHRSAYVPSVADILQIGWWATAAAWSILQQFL
# Chain of human Cav2.2 (P54289 947-1103 partner limits assumed): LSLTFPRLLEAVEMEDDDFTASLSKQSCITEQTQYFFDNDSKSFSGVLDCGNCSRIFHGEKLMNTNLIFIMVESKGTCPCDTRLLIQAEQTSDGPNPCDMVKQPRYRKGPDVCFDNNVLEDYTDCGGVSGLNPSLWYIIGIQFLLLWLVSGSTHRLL
# Chain of human Cav2.2 (P54284 whole entry partner): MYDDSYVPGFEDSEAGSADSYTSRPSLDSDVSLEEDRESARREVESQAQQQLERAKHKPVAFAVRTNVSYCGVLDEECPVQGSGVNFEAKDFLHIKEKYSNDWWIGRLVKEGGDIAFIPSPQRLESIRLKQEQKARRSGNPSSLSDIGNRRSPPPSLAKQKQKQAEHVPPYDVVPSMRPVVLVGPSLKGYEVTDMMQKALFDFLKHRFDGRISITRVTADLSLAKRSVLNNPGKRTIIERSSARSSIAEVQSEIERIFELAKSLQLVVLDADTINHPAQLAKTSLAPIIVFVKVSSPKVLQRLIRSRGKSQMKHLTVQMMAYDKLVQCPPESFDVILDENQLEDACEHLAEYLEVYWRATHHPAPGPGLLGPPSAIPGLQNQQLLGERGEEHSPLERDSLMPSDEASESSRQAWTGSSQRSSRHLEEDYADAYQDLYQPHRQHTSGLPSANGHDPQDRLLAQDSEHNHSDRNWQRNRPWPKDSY
row,IC50,SMILES
1,8.12 µM,"CN[C@@H](CC(C)C)C(=O)N[C@@H]1CC[C@@H]2CN(Cc3ccccc3)C[C@@H]21 [Example 364, N^1-[(3aR,4R,6aS)-2-benzyloctahydrocyclopenta[c]pyrrol-4-yl]-N^2-methyl-L-leucinamide]"
2,5.28 µM,"CCN[C@@H](CC(C)C)C(=O)N[C@H]1CC[C@@H]2CN(Cc3cccc(C(F)(F)F)c3)C[C@@H]21 [Example 366, N^2-ethyl-N^1-{(3aR,4S,6aS)-2-[3-(trifluoromethyl)benzyl]octahydrocyclopenta[c]pyrrol-4-yl}-L-leucinamide]"
3,7 µM,"CN[C@H](C(=O)N[C@@H]1CC[C@H]2CN(Cc3ccc(C(F)(F)F)cc3)C[C@H]21)C(C)C [Example 367, N^2-methyl-N^1-{(3aS,4R,6aR)-2-[4-(trifluoromethyl)benzyl]octahydrocyclopenta[c]pyrrol-4-yl}-L-valinamide]"
4,6.02 µM,"O=C(N[C@@H]1CC[C@H]2CN(Cc3ccc(C(F)(F)F)cc3)C[C@H]21)[C@@H]1CCCCN1 [Example 370, (2S)—N-{(3aS,4R,6aR)-2-[4-(trifluoromethyl)benzyl]octahydrocyclopenta[c]pyrrol-4-yl}piperidine-2-carboxamide]"
5,7.58 µM,"CN[C@H](C(=O)N[C@@H]1CC[C@H]2CN(Cc3cccc(C(F)(F)F)c3)C[C@H]21)C(C)C [Example 373, N^2-methyl-N^1-{(3aS,4R,6aR)-2-[3-(trifluoromethyl)benzyl]octahydrocyclopenta[c]pyrrol-4-yl}-L-valinamide]"
6,5.36 µM,"CN[C@@H](CC(C)C)C(=O)N[C@@H]1CC[C@H]2CN(Cc3ccc(C(F)(F)F)c(F)c3)C[C@H]21 [Example 374, N^1-{(3aS,4R,6aR)-2-[3-fluoro-4-(trifluoromethyl)benzyl]octahydrocyclopenta[c]pyrrol-4-yl}-N^2-methyl-L-leucinamide]"
7,8.22 µM,"CN[C@@H](CC(C)C)C(=O)N[C@@H]1CC[C@H]2CN(Cc3ccc(F)c(C(F)(F)F)c3)C[C@H]21 [Example 375, N^1-{(3aS,4R,6aR)-2-[4-fluoro-3-(trifluoromethyl)benzyl]octahydrocyclopenta[c]pyrrol-4-yl}-N^2-methyl-L-leucinamide]"
8,0.8 µM,"CCN[C@@H](CC(C)C)C(=O)N[C@H]1CC[C@@H]2CN(S(=O)(=O)c3cccc(C(F)(F)F)c3)C[C@@H]21 [Example 383, N^2-ethyl-N^1-((3aR,4S,6aS)-2-{[3-(trifluoromethyl)phenyl]sulfonyl}octahydrocyclopenta[c]pyrrol-4-yl)-L-leucinamide]"
9,1.14 µM,"CN[C@@H](CC(C)C)C(=O)N[C@H]1CC[C@@H]2CN(S(=O)(=O)c3cccc(C(F)(F)F)c3)C[C@@H]21 [Example 384, N^2-methyl-N^1-((3aR,4S,6aS)-2-{[3-(trifluoromethyl)phenyl]sulfonyl}octahydrocyclopenta[c]pyrrol-4-yl)-L-leucinamide]"
10,1.85 µM,"N[C@@H](Cc1ccccc1)C(=O)N[C@H]1CC[C@@H]2CN(S(=O)(=O)c3cccc(C(F)(F)F)c3)C[C@@H]21 [Example 385, N-((3aR,4S,6aS)-2-{[3-(trifluoromethyl)phenyl]sulfonyl}octahydrocyclopenta[c]pyrrol-4-yl)-L-phenylalaninamide]"
11,4.53 µM,"CC(C)[C@H](N)CC(=O)N[C@H]1CC[C@@H]2CN(S(=O)(=O)c3cccc(C(F)(F)F)c3)C[C@@H]21 [Example 388, (3R)-3-amino-4-methyl-N-((3aR,4S,6aS)-2-{[3-(trifluoromethyl)phenyl]sulfonyl}octahydrocyclopenta[c]pyrrol-4-yl)pentanamide]"
12,2.46 µM,"O=C(N[C@H]1CC[C@@H]2CN(S(=O)(=O)c3cccc(C(F)(F)F)c3)C[C@@H]21)[C@@H]1CCCCN1 [Example 390, (2S)—N-((3aR,4S,6aS)-2-{[3-(trifluoromethyl)phenyl]sulfonyl}octahydrocyclopenta[c]pyrrol-4-yl)piperidine-2-carboxamide]"
13,1.08 µM,"CCCC[C@H](NC)C(=O)N[C@H]1CC[C@@H]2CN(S(=O)(=O)c3cccc(C(F)(F)F)c3)C[C@@H]21 [Example 393, N^2-methyl-N^1-((3aR,4S,6aS)-2-{[3-(trifluoromethyl)phenyl]sulfonyl}octahydrocyclopenta[c]pyrrol-4-yl)-L-norleucinamide]"
14,0.98 µM,"CCC[C@H](NC)C(=O)N[C@H]1CC[C@@H]2CN(S(=O)(=O)c3cccc(C(F)(F)F)c3)C[C@@H]21 [Example 394, N^2-methyl-N^1-((3aR,4S,6aS)-2-{[3-(trifluoromethyl)phenyl]sulfonyl}octahydrocyclopenta[c]pyrrol-4-yl)-L-norvalinamide]"
15,2.12 µM,"CN[C@@H](CC(C)C)C(=O)N[C@H]1CC[C@@H]2CN(S(=O)(=O)c3ccc(C(F)(F)F)cc3)C[C@@H]21 [Example 395, N^2-methyl-N^1-((3aR,4S,6aS)-2-{[4-(trifluoromethyl)phenyl]sulfonyl}octahydrocyclopenta[c]pyrrol-4-yl)-L-leucinamide]"
16,3.55 µM,"O=C(N[C@@H]1CC[C@H]2CN(S(=O)(=O)c3cccc(C(F)(F)F)c3)C[C@H]21)[C@@H]1CCCN1 [Example 396, N-((3aS,4R,6aR)-2-{[3-(trifluoromethyl)phenyl]sulfonyl}octahydrocyclopenta[c]pyrrol-4-yl)-L-prolinamide]"
17,3.25 µM,"O=C(N[C@@H]1CC[C@H]2CN(S(=O)(=O)c3cccc(C(F)(F)F)c3)C[C@H]21)[C@@H]1CCCCN1 [Example 398, (2S)—N-((3aS,4R,6aR)-2-{[3-(trifluoromethyl)phenyl]sulfonyl}octahydrocyclopenta[c]pyrrol-4-yl)piperidine-2-carboxamide]"
18,6.86 µM,"CN[C@H](C(=O)N[C@@H]1CC[C@H]2CN(S(=O)(=O)c3ccc(F)cc3)C[C@H]21)C(C)C [Example 400, N^1-{(3aS,4R,6aR)-2-[(4-fluorophenyl)sulfonyl]octahydrocyclopenta[c]pyrrol-4-yl}-N^2-methyl-L-valinamide]"
19,2.06 µM,"CN[C@H](C(=O)N[C@@H]1CC[C@H]2CN(S(=O)(=O)c3ccc(C(F)(F)F)cc3)C[C@H]21)C(C)C [Example 402, N^2-methyl-N^1-((3aS,4R,6aR)-2-{[4-(trifluoromethyl)phenyl]sulfonyl}octahydrocyclopenta[c]pyrrol-4-yl)-L-valinamide]"
20,1.02 µM,"CCC[C@H](NC)C(=O)N[C@@H]1CC[C@H]2CN(S(=O)(=O)c3ccc(C(F)(F)F)cc3)C[C@H]21 [Example 404, N^2-methyl-N^1-((3aS,4R,6aR)-2-{[4-(trifluoromethyl)phenyl]sulfonyl}octahydrocyclopenta[c]pyrrol-4-yl)-L-norvalinamide]"
21,3.69 µM,"CN[C@H](C(=O)N[C@@H]1CC[C@H]2CN(S(=O)(=O)c3cccc(C(F)(F)F)c3)C[C@H]21)C(C)C [Example 406, N^2-methyl-N^1-((3aS,4R,6aR)-2-{[3-(trifluoromethyl)phenyl]sulfonyl}octahydrocyclopenta[c]pyrrol-4-yl)-L-valinamide]"
22,5.43 µM,"CN[C@@H](CC(C)C)C(=O)N[C@@H]1CC[C@H]2CN(S(=O)(=O)c3ccc(F)c(C(F)(F)F)c3)C[C@H]21 [Example 407, N^1-((3aS,4R,6aR)-2-{[4-fluoro-3-(trifluoromethyl)phenyl]sulfonyl}octahydrocyclopenta[c]pyrrol-4-yl)-N^2-methyl-L-leucinamide]"
23,5.11 µM,"CC(C)(C)[C@H](N)C(=O)N[C@H]1CC[C@@H]2CN(S(=O)(=O)c3ccc(C(F)(F)F)cc3)C[C@@H]21 [Example 408, 3-methyl-N^1-((3aR,4S,6aS)-2-{[4-(trifluoromethyl)phenyl]sulfonyl}octahydrocyclopenta[c]pyrrol-4-yl)-L-valinamide]"
24,5.02 µM,"CC(C)(C)[C@H](N)C(=O)N[C@@H]1CC[C@H]2CN(S(=O)(=O)c3ccc(C(F)(F)F)cc3)C[C@H]21 [Example 409, 3-methyl-N^1-((3aS,4R,6aR)-2-{[4-(trifluoromethyl)phenyl]sulfonyl}octahydrocyclopenta[c]pyrrol-4-yl)-L-valinamide]"
25,1.8 µM,"CC[C@H](C)[C@H](NC)C(=O)N[C@H]1CC[C@@H]2CN(S(=O)(=O)c3cccc(C(F)(F)F)c3)C[C@@H]21 [Example 410, N^2-methyl-N^1-((3aR,4S,6aS)-2-{[3-(trifluoromethyl)phenyl]sulfonyl}octahydrocyclopenta[c]pyrrol-4-yl)-L-isoleucinamide]"
26,4.22 µM,"CC[C@H](C)[C@H](NC)C(=O)N[C@H]1CC[C@@H]2CN(S(=O)(=O)c3ccc(C(F)(F)F)cc3)C[C@@H]21 [Example 411, N^2-methyl-N^1-((3aR,4S,6aS)-2-{[4-(trifluoromethyl)phenyl]sulfonyl}octahydrocyclopenta[c]pyrrol-4-yl)-L-isoleucinamide]"
27,0.9 µM,"CN[C@@H](CC(C)(C)C)C(=O)N[C@H]1CC[C@@H]2CN(S(=O)(=O)c3cccc(C(F)(F)F)c3)C[C@@H]21 [Example 414, N^2,4-dimethyl-N^1-((3aR,4S,6aS)-2-{[3-(trifluoromethyl)phenyl]sulfonyl}octahydrocyclopenta[c]pyrrol-4-yl)-L-leucinamide]"
28,1.33 µM,"CN[C@@H](CC(C)(C)C)C(=O)N[C@@H]1CC[C@H]2CN(S(=O)(=O)c3cccc(C(F)(F)F)c3)C[C@H]21 [Example 416, N^2,4-dimethyl-N^1-((3aS,4R,6aR)-2-{[3-(trifluoromethyl)phenyl]sulfonyl}octahydrocyclopenta[c]pyrrol-4-yl)-L-leucinamide]"
29,1.16 µM,"CN[C@@H](CC(C)(C)C)C(=O)N[C@@H]1CC[C@H]2CN(S(=O)(=O)c3ccc(C(F)(F)F)cc3)C[C@H]21 [Example 417, N^2,4-dimethyl-N^1-((3aS,4R,6aR)-2-{[4-(trifluoromethyl)phenyl]sulfonyl}octahydrocyclopenta[c]pyrrol-4-yl)-L-leucinamide]"
30,0.82 µM,"CCCC[C@H](NC)C(=O)N[C@H]1CC[C@@H]2CN(S(=O)(=O)c3ccc(C(F)(F)F)cc3)C[C@@H]21 [Example 418, N^2-methyl-N^1-((3aR,4S,6aS)-2-{[4-(trifluoromethyl)phenyl]sulfonyl}octahydrocyclopenta[c]pyrrol-4-yl)-L-norleucinamide]"
